Eight compounds from publication PMC7956587, “Molecular Docking Studies and Biological Evaluation of Berberine–Benzothiazole Derivatives as an Anti-Influenza Agent via Blocking of Neuraminidase” (International Journal of Molecular Sciences, 2021) can be followed below.

The structures appear in SMILES notation. Like-named read-outs stand apart in the source and are kept apart here.

Data set [1] relates to influenza B virus B/Maryland/1/59. The data set can be described thus: In vitro antiviral bioassay (CPE reduction, SRB) in MDCK cells. It counts as cell-based. The following applies: for IC50: Influenza B virus, read-out: IC50 B/MARYLAND/1/59; for TI B/MARYLAND/1/59: Therapeutic index, TI = CC50/IC50.
The subject of data set [2] is influenza B virus B/Lee/40. The description is as above. It counts as cell-based. The conditions noted are these: for IC50: Influenza B virus; for TI B/LEE/40: Therapeutic index, TI = CC50/IC50.
Data set [3] is described as follows: Cytotoxicity on MDCK cells, SRB method. The conditions noted are these: dog. Background: Sulforhodamine B stains cellular protein and so reports cell mass.
The subject of data set [4] is influenza A virus A/Vic/3/75 (H3N2). In words: In vitro antiviral bioassay (CPE reduction, SRB) in MDCK cells. It counts as cell-based. The conditions noted are these: for IC50: Influenza A virus, H3N2, MDCK, 48 h; for TI A/VIC/3/75 (H3N2): Therapeutic index, TI = CC50/IC50.
Data set [5] has as its target influenza virus neuraminidase (Influenza A virus, UniProt P03468). The data set can be described thus: Viral neuraminidase inhibition assay (NA-Star kit). It counts as biochemical, influenza A/PR/8/34 virus. The conditions noted are these: (Treatment/Virus) × 100, remaining activity; for activity at 0.1 µg/mL: at 0.1 μg/mL; for activity at 1 µg/mL: at 1 μg/mL; for activity at 10 µg/mL: at 10 μg/mL.

Data set [6] has as its system influenza A virus A/PR/8/34 (H1N1). In words: In vitro antiviral bioassay (CPE reduction, SRB) in MDCK cells. It counts as cell-based. The conditions noted are these: for IC50: Influenza A virus, MDCK, 48 h; for TI A/PR/8/34 (H1N1): Therapeutic index, TI = CC50/IC50.
Data set [7] can be described thus: in vitro. The conditions noted are these: dog.
The subject of data set [8] is MDCK cells. The conditions noted are these: dog, 48 h.
Setting [9] is: MDCK cells, 50 TCID50, 48 h, mean ± S.D., triplicate.

Chain of influenza virus neuraminidase (P03468 whole entry, looked up): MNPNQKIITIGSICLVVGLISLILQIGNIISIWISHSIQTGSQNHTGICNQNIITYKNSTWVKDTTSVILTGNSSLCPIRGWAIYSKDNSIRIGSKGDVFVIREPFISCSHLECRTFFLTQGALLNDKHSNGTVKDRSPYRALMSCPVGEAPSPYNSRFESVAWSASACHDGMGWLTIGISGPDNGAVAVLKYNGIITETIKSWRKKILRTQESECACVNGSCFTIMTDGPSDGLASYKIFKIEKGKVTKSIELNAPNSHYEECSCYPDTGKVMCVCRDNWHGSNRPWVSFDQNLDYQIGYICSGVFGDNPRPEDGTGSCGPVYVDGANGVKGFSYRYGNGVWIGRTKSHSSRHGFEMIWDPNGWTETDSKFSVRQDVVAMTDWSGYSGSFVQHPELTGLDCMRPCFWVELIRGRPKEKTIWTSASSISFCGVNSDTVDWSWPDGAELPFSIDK

On to `CCOC(=O)C1=C[C@@H](OC(CC)CC)[C@H](NC(C)=O)[C@@H](N)C1` [OSELTAMIVIR, Oseltamivir phosphate, reference compound], for which the IC50 in data set [1] (MDCK, 48 h) was 44.2 ± 1.83 mg/L. In addition, in data set [1], the “TI B/MARYLAND/1/59” value is recorded as 4.64. In data set [2] (setting [9]), this compound gave an IC50 of 55.9 ± 1.13 mg/L. Also, the “TI B/LEE/40” value in data set [2] is listed as 3.67. For the same compound, the CC50 at 48 h in data set [3] is over 100 mg/L. Moreover, in data set [4], the IC50 was 22.1 ± 1.07 mg/L and the “TI A/VIC/3/75 (H3N2)” value turned out to be 9.27. Moreover, in data set [5], the activity at 0.1 µg/mL was found to be 39.1%, the activity at 1 µg/mL stood at 29.1% and the activity at 10 µg/mL turned out to be 18.3%. In data set [6], the IC50 is 11.6 ± 1.43 mg/L and the “TI A/PR/8/34 (H1N1)” value is listed as 17.75.
In the case of `COc1ccc2cc3[n+](cc2c1OCCCCCNc1nc2ccc(Cl)cc2s1)CCc1cc2c(cc1-3)OCO2` [BBD 7], the CC50 at 48 h in data set [7] is over 100 mg/L. Further, in data set [8], the CC50 was 463.5 ± 3.386 mg/L. Also, the IC50 in data set [1] (setting [9]) was 88.1 ± 1.16 mg/L. Also, the “TI B/MARYLAND/1/59” value in data set [1] is given as 5.259. Besides, in data set [2] (setting [9]), the IC50 is 81.4 ± 3.01 mg/L. Also, in data set [4], the IC50 came out at 38.8 ± 2.51 mg/L and the “TI A/VIC/3/75 (H3N2)” value was 11.94. In data set [5], this compound came in with an activity at 0.1 µg/mL of 37.4%, an activity at 1 µg/mL of 32.1% and an activity at 10 µg/mL of 14.5%. For the same compound, in data set [6], the IC50 was found to be 24.3 ± 0.419 mg/L and the “TI A/PR/8/34 (H1N1)” value worked out at 19.08.
Compound `COc1ccc2cc3[n+](cc2c1OCCCCCNc1nc2ccc(C#N)cc2s1)CCc1cc2c(cc1-3)OCO2` [BBD 13] had a CC50 at 48 h in data set [7] of 45.1 ± 0.864 mg/L. For the same compound, the “IC50 B/MARYLAND/1/59” value in data set [1] (setting [9]) is listed as “did not show any activity”. Besides, the “IC50 B/LEE/40” value in data set [2] (setting [9]) was “did not show any activity”. The “IC50 A/VIC/3/75 (H3N2)” value in data set [4] is listed as “did not show any activity”. In addition, the “IC50 A/PR/8/34 (H1N1)” value in data set [6] is listed as “did not show any activity”.
The compound `COc1ccc2cc3[n+](cc2c1OCCCCCNc1nc2ccc(C(=O)O)cc2s1)CCc1cc2c(cc1-3)OCO2` [BBD 3] gave a CC50 at 48 h in data set [7] of over 100 mg/L. The CC50 in data set [8] turned out to be 382.9 ± 2.964 mg/L. Also, the IC50 was determined as 56.4 ± 1.06 mg/L in data set [1] (setting [9]), 53.9 ± 1.36 mg/L in data set [2] (setting [9]), 60.7 ± 1.06 mg/L in data set [4] and 35.9 ± 0.659 mg/L in data set [6]. Moreover, the “TI B/MARYLAND/1/59” value in data set [1] is 6.784. Besides, in data set [2], the “TI B/LEE/40” value is recorded as 7.105. For the same compound, the “TI A/VIC/3/75 (H3N2)” value in data set [4] is on record as 6.303. Besides, the “TI A/PR/8/34 (H1N1)” value in data set [6] is reported as 10.65.
For `COc1ccc2cc3[n+](cc2c1OCCCCCNc1nc2ccc(Br)cc2s1)CCc1cc2c(cc1-3)OCO2` [BBD 8], the CC50 at 48 h in data set [7] is over 100 mg/L. Further, the CC50 in data set [8] turned out to be 328.9 ± 1.065 mg/L. For the same compound, the IC50 is 81.2 ± 0.91 mg/L in data set [1] (setting [9]), 74.8 ± 1.83 mg/L in data set [2] (setting [9]), 70.7 ± 0.94 mg/L in data set [4] and 68.02 ± 0.67 mg/L in data set [6]. Moreover, the “TI B/MARYLAND/1/59” value in data set [1] is given as 4.052. Also, in data set [2], the “TI B/LEE/40” value is recorded as 4.395. Besides, the “TI A/VIC/3/75 (H3N2)” value in data set [4] is on record as 4.65. In addition, in data set [6], the “TI A/PR/8/34 (H1N1)” value amounted to 4.835.
For the compound `COc1ccc2cc3[n+](cc2c1OC)CCc1cc2c(cc1-3)OCO2` [BERBERINE, Berberine], the IC50 in data set [1] (MDCK, 48 h) is 54.6 ± 1.45 mg/L; in data set [2] (setting [9]), 60.8 ± 1.86 mg/L; in data set [4], 41.6 ± 2.04 mg/L; in data set [6] it was 36.1 ± 1.57 mg/L. In data set [1], the “TI B/MARYLAND/1/59” value is listed as 1.196. Further, in data set [2], the “TI B/LEE/40” value turned out to be 1.07. This compound displayed a CC50 at 48 h in data set [3] of 65.3 ± 1.92 mg/L. Further, the “TI A/VIC/3/75 (H3N2)” value in data set [4] came out at 1.571. The “TI A/PR/8/34 (H1N1)” value in data set [6] is listed as 1.808.
`COc1ccc2cc3[n+](cc2c1OCCCCCNc1nc2ccc(I)cc2s1)CCc1cc2c(cc1-3)OCO2` [BBD 9] showed a CC50 at 48 h in data set [7] of over 100 mg/L. Moreover, the CC50 in data set [8] was determined as 302.5 ± 1.771 mg/L. Moreover, the IC50 is 78.5 ± 2.31 mg/L in data set [1] (setting [9]), 69.8 ± 2.57 mg/L in data set [2] (setting [9]), 54.2 ± 2.09 mg/L in data set [4] and 54.5 ± 1.75 mg/L in data set [6]. In addition, the “TI B/MARYLAND/1/59” value in data set [1] amounted to 3.851. For the same compound, the “TI B/LEE/40” value in data set [2] is given as 4.331. In addition, the “TI A/VIC/3/75 (H3N2)” value in data set [4] was 5.585. For the same compound, the “TI A/PR/8/34 (H1N1)” value in data set [6] came to 5.547.
The compound `COc1ccc2cc3[n+](cc2c1OCCCCCNc1nc2ccc(C(F)(F)F)cc2s1)CCc1cc2c(cc1-3)OCO2` [BBD 12] yielded a CC50 at 48 h in data set [7] of over 100 mg/L. This compound yielded a CC50 in data set [8] of 302.3 ± 2.446 mg/L. Besides, the IC50 in data set [1] (setting [9]) amounted to 66.2 ± 1.82 mg/L; in data set [2] (setting [9]), 67.7 ± 1.52 mg/L; in data set [4], 44.6 ± 1.65 mg/L; in data set [6], 28.7 ± 0.514 mg/L. Besides, the “TI B/MARYLAND/1/59” value in data set [1] was 4.565. In addition, in data set [2], the “TI B/LEE/40” value turned out to be 4.468. For the same compound, the “TI A/VIC/3/75 (H3N2)” value in data set [4] stood at 6.784. The “TI A/PR/8/34 (H1N1)” value in data set [6] came to 10.52.
